The target of assay [1] is PARP1 (Homo sapiens, UniProt P09874). The experiment in a line: PARP1-DNA enzymatic trapping assay. The class given is biochemical. Particulars: 10 nM PARP1, 5 nM DNA probe, 2 mM NAD+, fluorescence polarization read at 30 minutes. On the procedure:
Enzymatic trapping assay is to measure the dissociation process of PARP1 from fluorescein-labeled DNA during the enzymatic activity. Assay was conducted at a total 10 μL of reaction volume, including 10 nM PARP1 and 5 nM DNA probe in the binding buffer (50 mM Tris-HCl pH 8.0, 50 mM NaCl, 1 mM MgCl2, 0.1 mM EDTA, and 0.01% IGEPAL), and was commenced by adding a final concentration of 2 mM NAD+ substrate.
PARP1 Poly-ADP ribosylation (PARylation) inhibitory assay was conducted with compounds dissolved in DMSO at a starting concentration of 5 μM. Dissolved compounds were added to 384-well microplate and premixed with PARPI enzyme and DNA probe for 20 minutes incubation. Enzymatic reactions were started by adding NAD+ to mixture, and each well was read at 30 minutes by microplate reader (VICTOR Nivo®, PerkinElmer) to detect the fluorescence polarization signal at 480 nm excitation/530 nm dual emission.
All measured IC50 values were calculated using four parameters dose-response inhibition model in GraphPad Prism 8.0.2 (La Jolla, California, USA, www.graphpad.com).

For assay [2], the system named is DLD1 BRCA2−/− cells. The assay can be described thus: Cell proliferation assay (DLD1 BRCA2−/−). The class given is cell-based. Particulars: at least 7 days, Cell-Titer Glo, read-out: DLD1 BRCA2−/− anti-proliferation assay. The protocol: (§1) For PARPi sensitivity, exponentially growing MDA-MB-436 and DLD1 BRCA2^−/− cells were seed in 96 or 384-well plates at very low density with the goal of not splitting for at least 7 days (typically 0.3k-1.2k cells/well). Cells were plated on […] and treated with DMSO or increasing concentrations of PARP1 inhibitors on Day 0. At the end of the experiment, cell viability was estimated using Cell-Titer Glo (Promega).

Assay [3] has as its system MDA-MB-436 cells. The experiment in a line: Cell proliferation assay (MDA-MB-436). The class given is cell-based. As to conditions: at least 7 days, Cell-Titer Glo, read-out: MDA-MB-436 anti-proliferation assay. On the procedure:
as §1

Where [4] appears, read: Homo sapiens, MDA-MB-436, 168 h.

Like-named read-outs stand apart in the source and are kept apart here.

Chain of PARP1 (P09874 whole entry): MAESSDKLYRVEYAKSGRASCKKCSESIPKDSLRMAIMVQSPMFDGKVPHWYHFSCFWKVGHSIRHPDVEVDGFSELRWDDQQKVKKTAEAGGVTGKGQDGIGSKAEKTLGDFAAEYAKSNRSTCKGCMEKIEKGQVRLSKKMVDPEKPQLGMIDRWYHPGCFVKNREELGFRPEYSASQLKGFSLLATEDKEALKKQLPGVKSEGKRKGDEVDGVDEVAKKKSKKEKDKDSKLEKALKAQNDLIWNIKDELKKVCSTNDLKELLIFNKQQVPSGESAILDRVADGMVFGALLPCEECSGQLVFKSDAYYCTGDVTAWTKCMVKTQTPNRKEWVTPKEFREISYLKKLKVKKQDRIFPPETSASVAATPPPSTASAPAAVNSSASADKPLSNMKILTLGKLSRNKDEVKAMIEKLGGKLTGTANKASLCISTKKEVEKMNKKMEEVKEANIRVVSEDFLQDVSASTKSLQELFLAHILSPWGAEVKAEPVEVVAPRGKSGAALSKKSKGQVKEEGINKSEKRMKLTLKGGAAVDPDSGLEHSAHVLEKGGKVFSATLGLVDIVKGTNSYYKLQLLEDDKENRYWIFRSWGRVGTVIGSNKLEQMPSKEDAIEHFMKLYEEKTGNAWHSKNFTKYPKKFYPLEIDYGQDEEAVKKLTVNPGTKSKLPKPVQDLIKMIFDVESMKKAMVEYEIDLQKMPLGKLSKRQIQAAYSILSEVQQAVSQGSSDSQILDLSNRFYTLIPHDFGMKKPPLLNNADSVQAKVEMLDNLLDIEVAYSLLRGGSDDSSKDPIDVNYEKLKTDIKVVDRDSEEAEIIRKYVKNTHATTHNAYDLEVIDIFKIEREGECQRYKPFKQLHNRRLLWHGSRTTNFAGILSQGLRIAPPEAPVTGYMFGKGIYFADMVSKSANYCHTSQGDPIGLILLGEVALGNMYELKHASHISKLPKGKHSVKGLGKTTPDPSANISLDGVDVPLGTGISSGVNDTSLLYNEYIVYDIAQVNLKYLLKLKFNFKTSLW

For `CCc1nc2ncc(CN3C[C@@H]4CN(c5ccc(C(=O)NC)nc5F)C[C@H]4C3)cc2[nH]c1=O` [Compound 37], the IC50 turned out to be 13.5 nM in assay [1]; 5.98 nM in assay [2] (Homo sapiens, DLD-1, 168 h); 4.63 nM in assay [3] (setting [4]).

With `CCc1cc2ncc(CN3C[C@H]4CN(c5ccc(C(=O)NC)nc5F)C[C@@H]4C3)cc2[nH]c1=O` (racemic) [Compound 19], the IC50 in assay [1] was determined as 6.13 nM; in assay [2], 0.59 nM; in assay [3], 0.59 nM.

Take `CCc1cc2ncc(CN3C[C@@H]4CN(c5ccc(C(=O)NCCOC)nc5F)C[C@H]4C3)cc2[nH]c1=O` [Compound 34]: the IC50 in assay [1] amounted to 10.5 nM; in assay [2] (Homo sapiens, DLD-1, 168 h), 1.09 nM; in assay [3] (setting [4]), 0.78 nM.

For the molecule `CO[C@H]1C[C@@H](NC(=O)c2ccc(N3C[C@H]4CN(Cc5ccc6c7c(c(=O)[nH]c6c5)OCCC7)C[C@@H]4C3)c(F)n2)C1` [Compound 90], the IC50 stood at 5.16 nM in assay [1]; 8.3 nM in assay [2] (Homo sapiens, DLD-1, 168 h); 1.74 nM in assay [3] (setting [4]).

As for `CNC(=O)c1ccc(N2C[C@H]3CN(Cc4cnc5c6c(c(=O)[nH]c5c4)COC6)C[C@@H]3C2)c(F)n1` [Compound 62], the IC50 in assay [1] came out at 7.82 nM; in assay [2] (Homo sapiens, DLD-1, 168 h), 5.86 nM; in assay [3] (setting [4]), 1.53 nM.

`CCC1Oc2ncc(CN3C[C@H]4CN(c5ccc(C(=O)NC)nc5)C[C@@H]4C3)cc2NC1=O` (mixture of isomers) [Compound 14]: the results for the IC50 in assay [1], in assay [2] and in assay [3] were 33.1 nM, 5.59 nM and 9.85 nM, respectively.

As to `CNC(=O)c1ccc(N2C[C@@H]3CN(Cc4ccc5c(c4)[nH]c(=O)n4ccnc54)C[C@H]3C2)cn1` (racemic) [Compound 13], the IC50 worked out at 46.3 nM in assay [1]; 10.6 nM in assay [2] (Homo sapiens, DLD-1, 168 h); 31.6 nM in assay [3] (setting [4]).

Regarding `O=C(NC1COC1)c1ccc(N2C[C@H]3CN(Cc4cc5[nH]c(=O)c6c(c5cn4)CCC6)C[C@@H]3C2)c(F)n1` [Compound 59], the IC50 was 5.17 nM in assay [1]; 1.35 nM in assay [2] (Homo sapiens, DLD-1, 168 h); 0.37 nM in assay [3] (setting [4]).

Turning to `CNC(=O)c1ccc(N2C[C@H]3CN(Cc4ccc5c6c(c(=O)[nH]c5c4)OCCC6)C[C@@H]3C2)c(F)n1` [Compound 88], the IC50 in assay [1] was found to be 7.9 nM; in assay [2] (Homo sapiens, DLD-1, 168 h), 4.56 nM; in assay [3] (setting [4]) it was 1.42 nM.

In the case of `O=C(NC1CCOCC1)c1ccc(N2C[C@H]3CN(Cc4cc5[nH]c(=O)c6c(c5cn4)CCC6)C[C@@H]3C2)c(F)n1` [Compound 58], the IC50 was found to be 7.68 nM in assay [1]; 12.9 nM in assay [2] (Homo sapiens, DLD-1, 168 h); 2.51 nM in assay [3] (setting [4]).

For the molecule `CNC(=O)c1ccc(N2C[C@H]3CN(Cc4cc5[nH]c(=O)c6c(c5cn4)COC6)C[C@@H]3C2)c(F)n1` [Compound 63], the IC50 in assay [1] turned out to be 101 nM; in assay [2] (Homo sapiens, DLD-1, 168 h) it was 141 nM; in assay [3] (setting [4]), 7.29 nM.

Turning to `CNC(=O)c1ccc(N2C[C@H]3CN(Cc4cnc5c(c4)NC(=O)[C@@H]4CCCN54)C[C@@H]3C2)c(F)n1` [Compound 22], the IC50 turned out to be 10.9 nM in assay [1]; 1.09 nM in assay [2] (Homo sapiens, DLD-1, 168 h); 0.69 nM in assay [3] (setting [4]).

As to `CNC(=O)c1ccc(N2C[C@H]3CN(Cc4ccc5c6c(c(=O)[nH]c5c4)CCOC6)C[C@@H]3C2)cn1` [Compound 78], the IC50 in assay [1] is 26.7 nM; in assay [2] (Homo sapiens, DLD-1, 168 h), 9.14 nM; in assay [3] (setting [4]) it was 1.41 nM.

As for `CNC(=O)c1ccc(N2C[C@@H]3CN(Cc4cnc5c(c4)NC(=O)[C@@H]4CCCN54)C[C@H]3C2)cn1` (racemic) [Compound 7], the IC50 in assay [1] came to 24.8 nM; in assay [2] (Homo sapiens, DLD-1, 168 h), 4.63 nM; in assay [3] (setting [4]) it was 2.59 nM.

For `CNC(=O)c1ccc(N2C[C@@H]3CN(Cc4cnc5c(c4)NC(=O)[C@@H]4CCCN54)C[C@H]3C2)c(F)n1` [Compound 23], the IC50 in assay [1] was determined as 31.1 nM; in assay [2] (Homo sapiens, DLD-1, 168 h), 34.9 nM; in assay [3] (setting [4]), 20.2 nM.

On to `Cc1cc2ncc(CN3C[C@@H]4CN(c5ccc(C(=O)NC6CC6)nc5F)C[C@H]4C3)cc2[nH]c1=O` [Compound 30], for which the IC50 in assay [1] was 8.09 nM; in assay [2] (Homo sapiens, DLD-1, 168 h) it was 0.45 nM; in assay [3] (setting [4]) it was 0.37 nM.

In the case of `CCC1Oc2ncc(CN3C[C@H]4CN(c5ccc(C(=O)NC)nc5)C[C@@H]4C3)cc2NC1=O` (mixture of isomers) [Compound 5], the IC50 in assay [1] was 111 nM; in assay [2] it was 18.6 nM; in assay [3], 39.9 nM.

Turning to `CNC(=O)c1ccc(N2C[C@H]3CN(Cc4cnc5cc(C)c(=O)[nH]c5c4)C[C@@H]3C2)c(F)n1` [Compound 29], the IC50 was found to be 10.9 nM in assay [1]; 0.87 nM in assay [2] (Homo sapiens, DLD-1, 168 h); 0.59 nM in assay [3] (setting [4]).

Consider `COCCNC(=O)c1ccc(N2C[C@H]3CN(Cc4ccc5c6c(c(=O)[nH]c5c4)COCC6)C[C@@H]3C2)c(F)n1` [Compound 67], for which the IC50 was found to be 10.4 nM in assay [1]; 2.16 nM in assay [2] (Homo sapiens, DLD-1, 168 h); 0.64 nM in assay [3] (setting [4]).

Regarding `CNC(=O)c1ccc(N2C[C@@H]3CN(Cc4ccc5nc(C)c(=O)[nH]c5c4F)C[C@H]3C2)cn1` (racemic) [Compound 6], the IC50 in assay [1] is 262 nM; in assay [2] (Homo sapiens, DLD-1, 168 h) it was 49.3 nM; in assay [3] (setting [4]), 76.1 nM.

For `COCCNC(=O)c1ccc(N2C[C@H]3CN(Cc4ccc5c6c(c(=O)[nH]c5c4)COCC6)C[C@@H]3C2)cn1` [Compound 68], the IC50 was found to be 14.6 nM in assay [1]; 12.3 nM in assay [2] (Homo sapiens, DLD-1, 168 h); 0.6 nM in assay [3] (setting [4]).

With `CCc1cc2ncc(CN3C[C@H]4CN(c5ccc(C(=O)NC)nc5)C[C@@H]4C3)cc2[nH]c1=O` [Compound 9], the IC50 in assay [1] was 10.8 nM; in assay [2] (Homo sapiens, DLD-1, 168 h), 1.29 nM; in assay [3], 1.76 nM.

Take `CNC(=O)c1ccc(N2C[C@@H]3CN(Cc4ccc5nc(C)c(=O)[nH]c5c4F)C[C@H]3C2)c(F)n1` (racemic) [Compound 3]: the IC50 is 41.1 nM in assay [1]; 45.3 nM in assay [2] (Homo sapiens, DLD-1, 168 h); 15.7 nM in assay [3] (setting [4]).

For `COCCNC(=O)c1ccc(N2C[C@H]3CN(Cc4cnc5cc(C)c(=O)[nH]c5c4)C[C@@H]3C2)c(F)n1` [Compound 35], the IC50 in assay [1] is 23.7 nM; in assay [2] (Homo sapiens, DLD-1, 168 h), 4.14 nM; in assay [3] (setting [4]), 3 nM.

With `CNC(=O)c1ccc(N2C[C@H]3CN(Cc4cnc5c6c(c(=O)[nH]c5c4)OCCC6)C[C@@H]3C2)c(F)n1` [Compound 81], the IC50 in assay [1] is 7.6 nM; in assay [2] (Homo sapiens, DLD-1, 168 h) it was 4.66 nM; in assay [3] (setting [4]), 1.05 nM.

As to `CCC1Oc2ncc(CN3C[C@H]4CN(c5ccc(C(=O)NC)nc5F)C[C@@H]4C3)cc2NC1=O` (mixture of isomers) [Compound 8], the IC50 in assay [1] is 47.3 nM; in assay [2] (Homo sapiens, DLD-1, 168 h), 13.9 nM; in assay [3] (setting [4]) it was 5.13 nM.

Regarding `CCC1Oc2ncc(CN3C[C@H]4CN(c5ccc(C(=O)NC6CC6)nc5F)C[C@@H]4C3)cc2NC1=O` (mixture of isomers) [Compound 18], the IC50 amounted to 27.3 nM in assay [1]; 12.7 nM in assay [2] (Homo sapiens, DLD-1, 168 h); 11.4 nM in assay [3] (setting [4]).

In the case of `CO[C@H]1C[C@@H](NC(=O)c2ccc(N3C[C@H]4CN(Cc5cnc6c7c(c(=O)[nH]c6c5)COCC7)C[C@@H]4C3)cn2)C1` [Compound 75], the IC50 in assay [1] was 8.6 nM; in assay [2] (Homo sapiens, DLD-1, 168 h), 10.2 nM; in assay [3] (setting [4]), 0.93 nM.

Turning to `CNC(=O)c1ccc(N2C[C@@H]3CN(Cc4cnc5c(c4)[nH]c(=O)n4cccc54)C[C@H]3C2)cn1` (racemic) [Compound 12], the IC50 came to 17.3 nM in assay [1]; 3.68 nM in assay [2] (Homo sapiens, DLD-1, 168 h); 5.03 nM in assay [3] (setting [4]).

Consider `CNC(=O)c1ccc(N2C[C@H]3CN(Cc4cnc5c6c(c(=O)[nH]c5c4)CCC6)C[C@@H]3C2)cn1` [Compound 47], for which the IC50 was 9.42 nM in assay [1]; 0.77 nM in assay [2] (Homo sapiens, DLD-1, 168 h); 1.1 nM in assay [3] (setting [4]).

For `CCc1cc2ncc(CN3C[C@H]4CN(c5ccc(C(=O)NCCOC)nc5)C[C@@H]4C3)cc2[nH]c1=O` (racemic) [Compound 26], the IC50 in assay [1] was 5.99 nM; in assay [2] (Homo sapiens, DLD-1, 168 h), 1.6 nM; in assay [3] (setting [4]) it was 0.69 nM.

Turning to `CNC(=O)c1ccc(N2C[C@H]3CN(Cc4ccc5nc(C)c(=O)[nH]c5c4)C[C@@H]3C2)c(F)n1` [Compound 31], the IC50 in assay [1] worked out at 8.35 nM; in assay [2] (Homo sapiens, DLD-1, 168 h), 1.49 nM; in assay [3] (setting [4]), 0.98 nM.

As to `O=C(NC1COC1)c1ccc(N2C[C@H]3CN(Cc4ccc5c6c(c(=O)[nH]c5c4)COCC6)C[C@@H]3C2)c(Cl)n1` [Compound 84], the IC50 in assay [1] came to 411 nM.

The values are drawn from patent US20260226076A1, “FUSED MULTICYCLIC COMPOUNDS AND THEIR USE AS PARP1 INHIBITORS” (LAEKNA THERAPEUTICS SHANGHAI CO., LTD., priority 2022, published 2026).
